The source of these data is patent publication US20240254066A1, “RESCORCINOLS, METHODS FOR THEIR MANUFACTURE, AND USES THEREOF” (GW Research Limited, priority 2021, published 2024).

The subject of this data set is tonic hind limb extensor convulsions (mouse model of generalised seizure). Nature of the data set: mini-MEST (maximal electroshock seizure threshold) test in the mouse. To be noted: for change in vivo at 5 mg/kg / change in vivo at 50 mg/kg: Mus musculus, ip, change in CC50; for change in vivo at 5 mg/kg: 0.25 h, read-out: % change from vehicle, 5 mg/kg i.p., 15 min post dose; for change in vivo at 50 mg/kg: 0.5 h, read-out: % change from vehicle, 50 mg/kg i.p., 30 min post dose. As to the method: The efficacy of novel resorcinols 2, 3, 5, 8, 10, 15, 16, 17, 18, 19, 41 45, 46, 53, 56 and 58 were tested in a novel mouse model of generalised seizure, the mini-MEST (maximal electroshock seizure threshold) test, which uses lower n numbers than typically used.
The maximal electroshock seizure threshold (MEST) test is widely utilized preclinically to evaluate pro- or anti-convulsant properties of test compounds (Loscher et al., 1991).
In the MEST test the ability of a drug to alter the seizure threshold current required to induce hind limb tonic extensor convulsions is measured according to an “up and down” method of shock titration (Kimball et al., 1957). An increase in seizure threshold is indicative of anti-convulsant effect.
The ability of a test compound to alter the stimulus intensity, expressed as current (mA), required to induce the presence of tonic hind limb extensor convulsions, is assessed in the MEST.
Naïve mice were acclimatised to the procedure room in their home cages for up to 7 days, with food and water available ad libitum.
All animals were weighed at the beginning of the study and randomly assigned to treatment groups based on a mean distribution of body weight across groups.
The first animal within a treatment group was given a shock at the expected or estimated CC50 current. For subsequent animals, the current was lowered or raised depending on the convulsions outcome from the preceding animal in log scale intervals.
Data generated from each treatment group were used to calculate the CC50±SEM values for the treatment group.
Vehicle: (5% ethanol, 10% solutol in 85% Saline) was prepared as follows: 1 mL of ethanol, 2 mL of solutol were warmed to 60° C., in 17 mL of saline (1:2:17).
The test compounds used were 2, 3, 5, 8, 10, 15, 16, 17, 18, 19, 41, 45, 46, 53, 56 and 58 Test compounds were administered at 5-50 mg/kg (i.p.) in a 1:2:17 ethanol:solutol:saline formulation.
Test compound effects were also calculated as percentage change in CC50 from the vehicle control group.
Significant difference between drug-treated animals and controls were assessed according to Litchfield and Wilcoxon (1949).

[1] abbreviates: 5 mg/kg i.p., test 15 min post dose.
[2] abbreviates: 50 mg/kg i.p., test 30 min post dose.

For the compound `C=C(C)[C@@H]1C[C@H](O)C(C)=C[C@H]1c1c(O)cc(Cl)cc1O` [Compound 2, (1′R,2′R,4′S)-4-Chloro-5′-methyl-2′-(prop-1-en-2-yl)-1′,2′,3′,4′-tetrahydro-[1,1′-biphenyl]-2,4′,6-triol], the change in vivo at 5 mg/kg worked out at 7% and the change in vivo at 50 mg/kg was greater than 330%. The “CC50 +/− SEM” value under setting [1] came out at 28.3 ± 1.1 mA. Besides, the “CC50 +/− SEM” value under setting [2] was greater than 114 mA.
For `C=C(C)[C@@H]1C[C@H](O)C(C)=C[C@H]1c1c(O)cc(CC)cc1O` [Compound 3, (1″R,2′R,4′S)-4-Ethyl-5′-methyl-2″-(prop-1-en-2-yl)-1′,2″,3″,4′-tetrahydro-[1,1″-biphenyl]-2,4′,6-triol] the same measures were 77%, 137%, 44.2 +/− 1.4 mA and 59.2 +/− 1.4 mA.
For `C=C(C)[C@@H]1C[C@H](O)C(C)=C[C@H]1c1c(O)cc(CCOC)cc1O` [Compound 5, (1′R,2′R,4′S)-4-(2-Methoxyethyl)-5′-methyl-2′-(prop-1-en-2-yl)-1″,2′,3′,4′-tetrahydro-[1,1′-biphenyl]-2,4′,6-triol], in that order: 0%, 115%, 23.5 +/− 0.3 mA and 50.5 +/− 0.7 mA.
For `C=C(C)[C@@H]1C[C@H](O)C(C)=C[C@H]1c1c(O)cc(/C=C/C)cc1O` [Compound 7, (1′R,2′R,4′S)-5′-Methyl-4-((E)-prop-1-en-1-yl)-2′-(prop-1-en-2-yl)-1′,2′,3′,4′-tetrahydro-[1,1′-biphenyl]-2,4′,6-triol] the same measures were -2%, 153%, 29.0 ± 1.5 mA and 75.0 ± 3.4 mA.
With `C=C(C)[C@@H]1C[C@H](O)C(C)=C[C@H]1c1c(O)cc(C2CC2)cc1O` [Compound 8, (1′R,2′R,4′S)-4-Cyclopropyl-5′-methyl-2′-(prop-1-en-2-yl)-1′,2′,3′,4′-tetrahydro-[1,1′-biphenyl]-2,4″,6-triol], the change in vivo at 5 mg/kg was found to be 9% and the change in vivo at 50 mg/kg amounted to 159%. Further, under setting [1], the “CC50 +/− SEM” value was 24.5 ± 0.9 mA. In addition, under setting [2], the “CC50 +/− SEM” value was found to be 58.2 ± 2.0 mA.
Regarding `C=C(C)[C@@H]1C[C@H](O)C(C)=C[C@H]1c1c(O)cc(C2=CCCC2)cc1O` [Compound 9, (1′R,2′R,4′S)-4-(Cyclopent-1-en-1-yl)-5′-methyl-2′-(prop-1-en-2-yl)-1′,2′,3′,4′-tetrahydro-[1,1′-biphenyl]-2,4′,6-triol], the change in vivo at 50 mg/kg is greater than 344%. The “CC50 +/− SEM” value under setting [2] is recorded as greater than 131.0 mA.
Regarding `C=C(C)[C@@H]1C[C@H](O)C(C)=C[C@H]1c1c(O)cc(-c2cnn(C)c2)cc1O` [Compound 10, (1′R,2′R,4′S)-5′-Methyl-4-(1-methyl-1H-pyrazol-4-yl)-2′-(prop-1-en-2-yl)-1′,2″,3′,4′-tetrahydro-[1,1′-biphenyl]-2,4′,6-triol], the change in vivo at 5 mg/kg came to 21% and the change in vivo at 50 mg/kg came to 32%. The “CC50 +/− SEM” value under setting [1] is listed as 28.3 +/− 1.1 mA. In addition, the “CC50 +/− SEM” value under setting [2] is 31.0 +/− 0.2 mA.
Take `C=C(C)[C@@H]1C[C@H](O)C(C)=C[C@H]1c1c(O)cc(-c2cccc(OC)c2)cc1O` [Compound 15, (1R,2R,4S)-3″-Methoxy-5-methyl-2-(prop-1-en-2-yl)-1,2,3,4-tetrahydro-[1,1′:4′,1″-terphenyl]-2′,4,6′-triol]: the change in vivo at 50 mg/kg was greater than 407%. The “CC50 +/− SEM” value under setting [2] was greater than 114 mA.
On to `C=C(C)[C@@H]1C[C@H](O)C(C)=C[C@H]1c1c(O)cc(-c2ccnc(OC)c2)cc1O` [Compound 16, (1′R,2′R,4′S)-4-(2-Methoxypyridin-4-yl)-5′-methyl-2′-(prop-1-en-2-yl)-1″,2′,3′,4′-tetrahydro-[1,1′-biphenyl]-2,4′,6-triol], for which the change in vivo at 50 mg/kg amounted to 213%. Besides, the “CC50 +/− SEM” value under setting [2] was 70.5 +/− 1.3 mA.
With `C=C(C)[C@@H]1C[C@H](O)C(C)=C[C@H]1c1c(O)cc(-c2ccc(OC)nc2)cc1O` [Compound 17, (1′R,2′R,4′S)-4-(6-Methoxypyridin-3-yl)-5′-methyl-2′-(prop-1-en-2-yl)-1′,2′,3′,4′-tetrahydro-[1,1′-biphenyl]-2,4′,6-triol], the change in vivo at 5 mg/kg stood at 66% and the change in vivo at 50 mg/kg was greater than 385%. For the same compound, the “CC50 +/− SEM” value under setting [1] is listed as 39.0 +/− 0.2 mA. Moreover, under setting [2], the “CC50 +/− SEM” value is greater than 114 mA.
For `C=C(C)[C@@H]1C[C@H](O)C(C)=C[C@H]1c1c(O)cc(-c2ccc(F)cc2)cc1O` [Compound 18, (1R,2R,4S)-4″-fluoro-5-methyl-2-(prop-1-en-2-yl)-1,2,3,4-tetrahydro-[1,1′:4′,1″-terphenyl]-2′,4,6′-triol], in that order: 38%, 178%, 31.0 ± 4.5 mA and 61.5 ± 1.3 mA.
For `C=C(C)[C@@H]1C[C@H](O)C(C)=C[C@H]1c1c(O)cc(-c2ccc(OC(F)F)nc2)cc1O` [Compound 19, (1′R,2′R,4′S)-4-(6-(Difluoromethoxy)pyridin-3-yl)-5′-methyl-2′-(prop-1-en-2-yl)-1′,2″,3′,4′-tetrahydro-[1,1′-biphenyl]-2,4′,6-triol], in that order: 43%, 268%, 38.0 ± 1.9 mA and 97.5 ± 1.3 mA.
As for `C=C(C)[C@@H]1C[C@H](O)C(C)=C[C@H]1c1c(O)cc(C2=CCOCC2)cc1O` [Compound 26, (1′R,2′R,4′S)-4-(3,6-Dihydro-2H-pyran-4-yl)-5′-methyl-2′-(prop-1-en-2-yl)-1′,2″,3′,4′-tetrahydro-[1,1′-biphenyl]-2,4′,6-triol], the change in vivo at 5 mg/kg was found to be 24% and the change in vivo at 50 mg/kg was 100%. The “CC50 +/− SEM” value under setting [1] came out at 31.0 ± 0.2 mA. Also, the “CC50 +/− SEM” value under setting [2] turned out to be 50.0 ± 2.6 mA.
For `C=C(C)[C@@H]1C[C@H](O)C(C)=C[C@H]1c1c(O)cc(-c2ccccc2OC)cc1O` [Compound 29, (1R,2R,4S)-2″-Methoxy-5-methyl-2-(prop-1-en-2-yl)-1,2,3,4-tetrahydro-[1,1′:4′,1″-terphenyl]-2″,4,6′-triol], in that order: 32%, 166%, 35.0 ± 2.6 mA and 70.5 ± 1.3 mA.
With `C=C(C)[C@@H]1C[C@H](O)C(C)=C[C@H]1c1c(O)cc(-c2ccc(F)c(OC)c2)cc1O` [Compound 30, (1R,2R,4S)-4″-Fluoro-3″-methoxy-5-methyl-2-(prop-1-en-2-yl)-1,2,3,4-tetrahydro-[1,1′:4′,1″-terphenyl]-2′,4,6′-triol], the change in vivo at 5 mg/kg was found to be 62% and the change in vivo at 50 mg/kg is greater than 394%. Moreover, the “CC50 +/− SEM” value under setting [1] is listed as 43.0 ± 1.9 mA. Besides, under setting [2], the “CC50 +/− SEM” value was greater than 131 mA.
In the case of `C=C(C)[C@@H]1C[C@H](O)C(C)=C[C@H]1c1c(O)cc(-c2cccc(OC(F)F)c2)cc1O` [Compound 31, (1R,2R,4S)-3″-(Difluoromethoxy)-5-methyl-2-(prop-1-en-2-yl)-1,2,3,4-tetrahydro-[1,1′:4′,1″-terphenyl]-2′,4,6′-triol], the change in vivo at 5 mg/kg is 25% and the change in vivo at 50 mg/kg was 200%. Further, the “CC50 +/− SEM” value under setting [1] is 33.0 ± 1.5 mA. The “CC50 +/− SEM” value under setting [2] turned out to be 79.5 ± 1.3 mA.
